From patent US12631620B2, “Methods of generating organoids for high throughput screening of drugs” (Yissum Research Development Company of the Hebrew …, priority 2019, dated 2026)
Where a name gives a salt, the structure may show the parent alone. Numbered stars: 1 amine (or outer) side, 2 acyl side, 3 side chain; on linkers, the order of the positions; unused ones are H or OH. Bridge positions count the residues as written; N and C are the ends. Square brackets hold non-standard residues; d marks the D form. Peptide text beside a SMILES is read from it. I, II: the chains in the order shown. Actinocin(9to1) = Cc1c2oc3c(C)ccc(C(=O)[*:1])c3nc-2c(C(=O)[*:2])c(N)c1=O; NMeV = CN[C@H](C(=O)O)C(C)C; Sar = CNCC(=O)O

The compounds below were run on U87-MG spheroids (assay: High throughput kinetic oxygen screen of FDA-approved anticancer drugs on U87-MG micro-tumors with embedded oxygen sensors, 384-well plate). Conditions: 5 μM; U87-MG cells embedded in collagen gel or basement membrane gel.
Type: cell-based, human
Protocol: In general, cells were kept under standard conditions in a humidified incubator at 37° C., under 5% CO2. U87-MG cells (obtained from the American Type Culture Collection (ATCC)) were cultured in Eagle's Minimum Essential Medium (EMEM) (ATCC® 30-2003™) supplemented with 15% (volume/volume) fetal bovine serum (FCS), 100 U/mL penicillin, and 100 μg/mL streptomycin (Sigma-Aldrich). Medium was changed every 2 days and cells were split every 5 days. Patient's specific glioblastoma derived cells (obtained from Cleveland clinic) were cultured in Neurobasal™ Medium (Trademark Serial number: 77137832) minus phenol red (Thermo-Fischer Scientific) supplemented with 1× (volume/volume) B27 minus Vitamin A (Thermo-Fischer Scientific), 10 ng/ml basic fibroblast growth factor (bFGF) 10 ng/ml EGF (epidermal growth factor) (PEPROTECH), 100 U/mL penicillin, 100 μg/mL streptomycin (Sigma-Aldrich) and L-Alanyl-L-Glutamine (Biological Industries). Medium was changed every 3 days and cells were split every 2-3 weeks. Rat retinal capillary endothelial cells (RCECs) were cultured in EGM™-2 Endothelial Cell Growth Medium-2 BulletKit™ (Lonza). Medium was changed every 3 days and cells were split every 6 days.
For tumor organoid formation, cancer cells were cultured to reach the adequate number needed for a 384 well plate. Cells were trypsinized, counted, and centrifuged at 300 g for 5 minutes at 4° C. The pellet was then mixed with 5 mg CPOx-50-RuP oxygen-sensing beads (Colibri Photonics) and resuspended in 800 μl of ice-cold solution of collagen type I (BD Biosciences) or Matrigel® Basement Membrane Matrix, Growth Factor Reduced (GFR) (Corning) for a final seeding density of 25-50×10^6 cells/mL. In some cases, endothelial cells (RCECs) are used in the assembly of the tumor spheroids by mixing them with same or double the number of tumor cells (i.e. 1:1 or 1:2 ratios) before centrifugation. The 800 μl mix was then equally distributed into a PCR strip (100 μl/tube) and passed to a Biomek i5 liquid handling workstation (Beckman Coulter) for the formation of uniformly-sized organoid in 384-well plate. The plate was then incubated for 30 minutes at 37° C., and the medium was replaced using the liquid handing workstation. Medium was changed every two days for 4 days before adding the drugs (5 μM of NIH chemotherapeutic drugs in triplicates per drug).
On the day of measurement, medium was changed 2-12 hours before drug induction, based on the oxygen consumption of the microtissue (e.g., U87-MG spheroids are given 6 hours after media change before drugs are induced).
After applying the drugs, the plate was placed on the DynamiX bioanalyzer (Tissue Dynamics). Organoids positions were detected optically. Oxygen content was monitored at a predetermined rate of 1 to 10 seconds of measurement at each location (e.g. Matrigel®/U87-MG spheroids treated with a set of FDA-approved anticancer drugs to enable cancer research was measured via phosphorescence for 4 seconds/well). Each cycle takes between 10-120 minutes, dependent on sampling rate and well number (e.g., Matrigel®/U87-MG spheroids 384 well at a sampling rate of 4 measurements/well take about 60 minutes for each cycle). […]
Further validation was usually done by multiple independent repeats (e.g. Matrigel®/U87-MG spheroids treated with a set of FDA-approved anticancer drugs to enable cancer research [AOD IX] were assessed in 3 independent experiments). […]

| SMILES | type of response in kinetic oxygen measurement (positive, false negative, false positive) |
| --- | --- |
| CC(C)C[C@H](NC(=O)[C@H](Cc1ccccc1)NC(=O)c1cnccn1)B(O)O [Bortezomib] | positive |
| Cc1c2oc3c(C)ccc(C(=O)N[C@@H]4C(=O)N[C@H](C(C)C)C(=O)N5CCC[C@H]5C(=O)N(C)CC(=O)N(C)[C@@H](C(C)C)C(=O)O[C@@H]4C)c3nc-2c(C(=O)N[C@@H]2C(=O)N[C@H](C(C)C)C(=O)N3CCC[C@H]3C(=O)N(C)CC(=O)N(C)[C@@H](C(C)C)C(=O)O[C@@H]2C)c(N)c1=O [Dactinomycin] (I: T[dV]P[Sar][NMeV] / II: T[dV]P[Sar][NMeV]; ester I:1-I:C, II:1-II:C; linker I:N-II:N via Actinocin(9to1)) | false positive |
| COc1cccc2c1C(=O)c1c(O)c3c(c(O)c1C2=O)C[C@@](O)(C(C)=O)C[C@@H]3O[C@H]1C[C@H](N)[C@H](O)[C@H](C)O1 [Daunorubicin hydrochloride] | false negative |
| Cc1c(C(=O)Nc2ccc(N3C[C@@H](C)O[C@@H](C)C3)nc2)cccc1-c1ccc(OC(F)(F)F)cc1 [Erismodegib] | false positive |
| COC(=O)C[C@](O)(CCCC(C)(C)O)C(=O)O[C@@H]1C(OC)=C[C@]23CCCN2CCc2cc4c(cc2[C@H]13)OCO4 [Omacetaxine mepesuccinate] | positive |
